Results: patent US4913891A, “Positron emitter labeled enzyme inhibitors” (The United States of America as represented by the United …, priority 1987, dated 1990)
Like-named read-outs stand apart in the source and are kept apart here.

How the values were obtained:
[1] = Integrated plasma activity for the 30-minute period after tracer injection; type: in vivo, human; conditions: 30-minute period after injection
Text: Integrated plasma activity
for the 30-minute time period after injection is also presented.

monoamine oxidase = experiment: PET in baboons, double injection with intervening high dose of unlabeled compound; type: in vivo; conditions: baboon pretreated with L-deprenyl, some brain regions
MAO A = molecular target: T1, MAO A (Mus musculus, UniProt Q64133); conditions: for Effect of cross pretreatment on tracer distribution: mice pretreated with unlabeled L-deprenyl 10 mg/kg i.p. one hour before tracer
T1 sequence (Q64133 1-526): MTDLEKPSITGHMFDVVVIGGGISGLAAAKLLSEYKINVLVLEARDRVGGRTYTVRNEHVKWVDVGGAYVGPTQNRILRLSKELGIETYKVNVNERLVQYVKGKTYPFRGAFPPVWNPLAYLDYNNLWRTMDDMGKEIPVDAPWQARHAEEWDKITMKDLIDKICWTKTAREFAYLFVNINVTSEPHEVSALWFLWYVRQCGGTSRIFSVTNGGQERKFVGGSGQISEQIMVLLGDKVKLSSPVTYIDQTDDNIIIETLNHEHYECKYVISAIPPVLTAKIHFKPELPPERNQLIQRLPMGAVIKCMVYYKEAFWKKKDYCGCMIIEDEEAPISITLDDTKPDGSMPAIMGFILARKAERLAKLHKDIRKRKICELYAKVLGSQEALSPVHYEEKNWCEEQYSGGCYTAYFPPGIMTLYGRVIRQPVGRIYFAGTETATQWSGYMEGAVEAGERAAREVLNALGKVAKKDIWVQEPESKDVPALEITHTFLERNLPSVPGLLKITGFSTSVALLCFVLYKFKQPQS
Description: Organs were rapidly removed, blotted free of blood, placed in preweighed counting vials, and counted, along with injection standards, in a sodium iodide well counter.
For the determination of protein binding, freshly excised brains were minced in preweighed centrifuge tubes containing 2 ml 0.4% HClO4 […], weighed, counted, diluted with 1 ml HClO4 and 1 ml methanol, and homogenized by ultrasonication. After centrifugation and decantation, the pellets were resuspended in 3 ml methanol, sonicated, and recentrifuged. The combined supernatants and pellet were counted in a sodium iodide well counter. […] Because of the short half-life of C-11, corrections for the decay of the isotope were calculated to a standard time (end of cyclotron bombardment) for all data.
For pretreatment experiments, mice were given intraperitoneal injections of unlabeled clorgyline or L-deprenyl (10 mg/kg) one hour before the administration of the [^11 C]-tracer.

[2] = study 5, subject receiving phenelzine plus amphetamine

C#CCN([11CH3])[C@H](C)Cc1ccccc1 [[^11 C]-L-deprenyl]
Integrated plasma activity ([1]; study 1, normal volunteer): 1818 nCi ml min | Integrated plasma activity ([1]; study 2, normal volunteer): 2295 nCi ml min | Integrated plasma activity ([1]; study 3, normal volunteer): 1018 nCi ml min | Integrated plasma activity ([1]; study 4, normal volunteer): 1618 nCi ml min | Integrated plasma activity [1, 2]: 2776 nCi ml min | Reduction of brain radioactivity due to tracer after pretreatment (monoamine oxidase): ≤ 80%

C#CCN([11CH3])CCCOc1ccc(Cl)cc1Cl [[^11 C]clorgyline]
Integrated plasma activity ([1]; study 1, normal volunteer): 2329 nCi ml min | Integrated plasma activity ([1]; study 2, normal volunteer): 3206 nCi ml min | Integrated plasma activity ([1]; study 3, normal volunteer): 3260 nCi ml min | Integrated plasma activity ([1]; study 4, normal volunteer): 3611 nCi ml min | Integrated plasma activity [1, 2]: 3965 nCi ml min | Effect of cross pretreatment on tracer distribution (MAO A): did not significantly alter from control | Effect of cross pretreatment on tracer distribution (MAO A; listed as [^11 C]Clorgyline): no effect | Brain uptake compared with the other tracer (MAO A; mouse brain, control and pretreated mice): slight but consistently higher uptake than L-deprenyl
